Usually Ki stands for the dissociation constant of the complex between target and ligand, obtained from inhibition or displacement. Usually MIC stands for the least concentration at which growth counts as inhibited. As usually defined, the IC50 is the concentration that inhibits the measured activity by half. As a reminder, the inhibition is the percentage by which the read-out fell short of the control.

Data on 14 compounds can be found in ChEMBL document CHEMBL5096175, “An insight into the medicinal attributes of berberine derivatives: A review” (Bioorg Med Chem, 2021).

The target of one experiment is Chitinase B (Serratia marcescens, UniProt P11797). Put plainly: Inhibition of Serratia marcescens chitinase B expressed in Escherichia coli BL21(DE3) cells using MU-(GlcNAc)2 as a substrate assessed as inhibition constant incubated for 25 mins by dixon plot analysis.
The test system of experiment [1] is Escherichia coli. Put plainly: Antibacterial activity against Escherichia coli assessed as inhibition of bacterial growth incubated for 24 hrs by micro broth dilution method. The format is functional. For orientation: In broth dilution the organism is exposed to a series of concentrations in liquid medium.
A short description of experiment [2]: Antioxidant activity assessed as DPPH radical scavenging activity measured after 25 mins by UV visible spectrophotometeric analysis. It is filed as functional. For orientation: DPPH is a stable violet radical that fades when it is reduced.
The test system of the next experiment is Ca-Ski. Put plainly: Anticancer activity against human Ca-Ski cells assessed as cell growth inhibition incubated for 48 hrs by SRB assay. It is filed as functional, cell-based.
The test system of experiment [3] is HeLa. Put plainly: Anticancer activity against human HeLa cells assessed as cell growth inhibition incubated for 48 hrs by SRB assay. The format is functional, cell-based. On the technique in general: The SRB assay estimates cell density from bound dye.
Experiment [4] in a line: Antioxidant activity assessed as ABTS radical scavenging activity incubated for 10 mins by UV spectrophotometeric analysis. The format is functional.
Another experiment deals with Clostridium perfringens. The experiment in a line: Antibacterial activity against Clostridium perfringens CICC 22949 assessed as inhibition of bacterial growth incubated for 24 hrs by broth microdilution method. The format is functional.
The next experiment has as its system Salmonella enteritidis. The experiment in a line: Antibacterial activity against Salmonella enteritidis CICC 24119 assessed as inhibition of bacterial growth incubated for 24 hrs by broth microdilution method. It is filed as functional, Salmonella enterica subsp. enterica serovar Enteritidis. The conditions noted are these: Salmonella enterica.
The subject of experiment [5] is Staphylococcus aureus. The experiment in a line: Antibacterial activity against methicillin-resistant Staphylococcus aureus ATCC 700699 assessed as inhibition of bacterial growth incubated for 24 hrs by broth microdilution method. The format is functional.
The next experiment relates to Shigella dysenteriae. The experiment in a line: Antibacterial activity against Shigella dysenteriae CICC 23829 assessed as inhibition of bacterial growth incubated for 24 hrs by broth microdilution method. The format is functional.
The next experiment deals with Streptococcus pyogenes. Put plainly: Antibacterial activity against Streptococcus pyogenes CICC 10356 assessed as inhibition of bacterial growth incubated for 24 hrs by broth microdilution method. It is filed as functional.
Experiment [6] deals with Staphylococcus aureus. Put plainly: Antibacterial activity against Staphylococcus aureus CICC 23656 assessed as inhibition of bacterial growth incubated for 24 hrs by broth microdilution method. The format is functional.
The test system of experiment [7] is Escherichia coli. The experiment in a line: Antibacterial activity against Escherichia coli CICC 10389 assessed as inhibition of bacterial growth incubated for 24 hrs by broth microdilution method. It is filed as functional.
Another experiment deals with Pseudomonas aeruginosa. Put plainly: Antibacterial activity against Pseudomonas aeruginosa CICC 10419 assessed as inhibition of bacterial growth incubated for 24 hrs by broth microdilution method. It is filed as functional.
In the next experiment the test system is PC-12. The experiment in a line: Cytotoxicity against […] cells assessed as inhibition of cell proliferation incubated for 24 hrs by MTT assay. It is filed as functional, cell-based. The conditions noted are these: Rattus norvegicus, PC-12, 24 h.
Experiment [8] deals with HeLa. Put plainly: Cytotoxicity against human HeLa cells assessed as inhibition of cell proliferation incubated for 24 hrs by MTT assay. It is filed as functional, cell-based.
The test system of the next experiment is HepG2. The experiment in a line: Cytotoxicity against human HepG2 cells assessed as inhibition of cell proliferation incubated for 24 hrs by MTT assay. It is filed as functional, cell-based. The conditions noted are these: HepG2, 24 h.
For experiment [9], the system named is MCF7. Put plainly: Cytotoxicity against human MCF7 cells assessed as inhibition of cell proliferation incubated for 24 hrs by MTT assay. It is filed as functional, cell-based. The conditions noted are these: MCF7, 24 h.
The subject of experiment [10] is A549. The experiment in a line: Cytotoxicity against human A549 cells assessed as inhibition of cell proliferation incubated for 24 hrs by MTT assay. The conditions noted are these: A549, 24 h. It is filed as functional, cell-based.
The target of experiment [11] is Histone acetyltransferase p300 (Homo sapiens, UniProt Q09472). Put plainly: Inhibition of N-terminal His/GST-tagged recombinant human p300 HAT domain (965 to 1810 residues) expressed in Sf9 insect cells using isotope labelled 3H-Ac-CoA as substrate incubated for 60 mins by microbeta counter based analysis.
The subject of the next experiment is Brucella abortus. The experiment in a line: Antibacterial activity against Brucella abortus by serial dilution method. It is filed as functional.
For the next experiment, the system named is Vibrio cholerae. The experiment in a line: Antibacterial activity against Vibrio cholerae by serial dilution method. It is filed as functional.
The next experiment deals with HEK-293T. The experiment in a line: Antiinflammatory activity against HEK-293T cells assessed as inhibition of TNF-alpha induced NF-kappaB activation at 5 uM preincubated for 2 hrs followed by TNFalpha stimulation for 6 hrs by dual-luciferase reporter assay relative to control. The format is functional. The conditions noted are these: Homo sapiens, time 8 hrs.
Experiment [12] deals with A549. Put plainly: Antiproliferative activity against human A549 cells assessed as inhibition of cell growth incubated for 72 hrs by MTT assay. The format is functional, cell-based. To be noted: A549, 72 h.
Another experiment relates to Bel-7402. The experiment in a line: Antiproliferative activity against human Bel-7402 cells assessed as inhibition of cell growth incubated for 72 hrs by MTT assay. It is filed as functional, cell-based. The conditions noted are these: Bel-7402, 72 h.
Experiment [13] deals with HeLa. Put plainly: Antiproliferative activity against human HeLa cells assessed as inhibition of cell growth incubated for 72 hrs by MTT assay. It is filed as functional, cell-based.
The test system of another experiment is HCT-8. The experiment in a line: Antiproliferative activity against human HCT-8 cells assessed as inhibition of cell growth incubated for 72 hrs by MTT assay. It is filed as functional, cell-based. To be noted: HCT-8, 72 h.
For the next experiment, the target named is Acetylcholinesterase (Homo sapiens, UniProt P22303). The experiment in a line: Inhibition of acetylcholinesterase (unknown origin) using acetylthiocholine iodide as substrate incubated for 10 mins by Ellman's colorimetric method.
Experiment [14] has as its system MCF7. The experiment in a line: Antiproliferative activity against human MCF7 cells incubated for 24 hrs by MTT assay. The conditions noted are these: MCF7, 24 h. The format is functional, cell-based.

Converted amounts (≈) assume the structure as drawn.

Chain of Chitinase B (P11797 whole entry): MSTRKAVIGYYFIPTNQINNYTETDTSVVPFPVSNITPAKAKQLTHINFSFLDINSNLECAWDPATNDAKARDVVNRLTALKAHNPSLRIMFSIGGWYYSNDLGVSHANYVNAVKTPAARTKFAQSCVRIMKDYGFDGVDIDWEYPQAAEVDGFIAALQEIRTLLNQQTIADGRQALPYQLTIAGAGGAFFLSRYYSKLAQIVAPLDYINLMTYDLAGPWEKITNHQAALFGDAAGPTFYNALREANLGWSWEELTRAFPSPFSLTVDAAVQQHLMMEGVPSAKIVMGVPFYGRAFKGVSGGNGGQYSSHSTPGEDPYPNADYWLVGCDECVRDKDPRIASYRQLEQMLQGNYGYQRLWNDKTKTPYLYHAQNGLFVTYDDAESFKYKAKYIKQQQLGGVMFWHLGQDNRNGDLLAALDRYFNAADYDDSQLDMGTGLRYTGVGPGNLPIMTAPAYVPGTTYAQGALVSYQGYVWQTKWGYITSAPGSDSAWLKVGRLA
Chain of Histone acetyltransferase p300 (Q09472 whole entry, the tested form may be a part): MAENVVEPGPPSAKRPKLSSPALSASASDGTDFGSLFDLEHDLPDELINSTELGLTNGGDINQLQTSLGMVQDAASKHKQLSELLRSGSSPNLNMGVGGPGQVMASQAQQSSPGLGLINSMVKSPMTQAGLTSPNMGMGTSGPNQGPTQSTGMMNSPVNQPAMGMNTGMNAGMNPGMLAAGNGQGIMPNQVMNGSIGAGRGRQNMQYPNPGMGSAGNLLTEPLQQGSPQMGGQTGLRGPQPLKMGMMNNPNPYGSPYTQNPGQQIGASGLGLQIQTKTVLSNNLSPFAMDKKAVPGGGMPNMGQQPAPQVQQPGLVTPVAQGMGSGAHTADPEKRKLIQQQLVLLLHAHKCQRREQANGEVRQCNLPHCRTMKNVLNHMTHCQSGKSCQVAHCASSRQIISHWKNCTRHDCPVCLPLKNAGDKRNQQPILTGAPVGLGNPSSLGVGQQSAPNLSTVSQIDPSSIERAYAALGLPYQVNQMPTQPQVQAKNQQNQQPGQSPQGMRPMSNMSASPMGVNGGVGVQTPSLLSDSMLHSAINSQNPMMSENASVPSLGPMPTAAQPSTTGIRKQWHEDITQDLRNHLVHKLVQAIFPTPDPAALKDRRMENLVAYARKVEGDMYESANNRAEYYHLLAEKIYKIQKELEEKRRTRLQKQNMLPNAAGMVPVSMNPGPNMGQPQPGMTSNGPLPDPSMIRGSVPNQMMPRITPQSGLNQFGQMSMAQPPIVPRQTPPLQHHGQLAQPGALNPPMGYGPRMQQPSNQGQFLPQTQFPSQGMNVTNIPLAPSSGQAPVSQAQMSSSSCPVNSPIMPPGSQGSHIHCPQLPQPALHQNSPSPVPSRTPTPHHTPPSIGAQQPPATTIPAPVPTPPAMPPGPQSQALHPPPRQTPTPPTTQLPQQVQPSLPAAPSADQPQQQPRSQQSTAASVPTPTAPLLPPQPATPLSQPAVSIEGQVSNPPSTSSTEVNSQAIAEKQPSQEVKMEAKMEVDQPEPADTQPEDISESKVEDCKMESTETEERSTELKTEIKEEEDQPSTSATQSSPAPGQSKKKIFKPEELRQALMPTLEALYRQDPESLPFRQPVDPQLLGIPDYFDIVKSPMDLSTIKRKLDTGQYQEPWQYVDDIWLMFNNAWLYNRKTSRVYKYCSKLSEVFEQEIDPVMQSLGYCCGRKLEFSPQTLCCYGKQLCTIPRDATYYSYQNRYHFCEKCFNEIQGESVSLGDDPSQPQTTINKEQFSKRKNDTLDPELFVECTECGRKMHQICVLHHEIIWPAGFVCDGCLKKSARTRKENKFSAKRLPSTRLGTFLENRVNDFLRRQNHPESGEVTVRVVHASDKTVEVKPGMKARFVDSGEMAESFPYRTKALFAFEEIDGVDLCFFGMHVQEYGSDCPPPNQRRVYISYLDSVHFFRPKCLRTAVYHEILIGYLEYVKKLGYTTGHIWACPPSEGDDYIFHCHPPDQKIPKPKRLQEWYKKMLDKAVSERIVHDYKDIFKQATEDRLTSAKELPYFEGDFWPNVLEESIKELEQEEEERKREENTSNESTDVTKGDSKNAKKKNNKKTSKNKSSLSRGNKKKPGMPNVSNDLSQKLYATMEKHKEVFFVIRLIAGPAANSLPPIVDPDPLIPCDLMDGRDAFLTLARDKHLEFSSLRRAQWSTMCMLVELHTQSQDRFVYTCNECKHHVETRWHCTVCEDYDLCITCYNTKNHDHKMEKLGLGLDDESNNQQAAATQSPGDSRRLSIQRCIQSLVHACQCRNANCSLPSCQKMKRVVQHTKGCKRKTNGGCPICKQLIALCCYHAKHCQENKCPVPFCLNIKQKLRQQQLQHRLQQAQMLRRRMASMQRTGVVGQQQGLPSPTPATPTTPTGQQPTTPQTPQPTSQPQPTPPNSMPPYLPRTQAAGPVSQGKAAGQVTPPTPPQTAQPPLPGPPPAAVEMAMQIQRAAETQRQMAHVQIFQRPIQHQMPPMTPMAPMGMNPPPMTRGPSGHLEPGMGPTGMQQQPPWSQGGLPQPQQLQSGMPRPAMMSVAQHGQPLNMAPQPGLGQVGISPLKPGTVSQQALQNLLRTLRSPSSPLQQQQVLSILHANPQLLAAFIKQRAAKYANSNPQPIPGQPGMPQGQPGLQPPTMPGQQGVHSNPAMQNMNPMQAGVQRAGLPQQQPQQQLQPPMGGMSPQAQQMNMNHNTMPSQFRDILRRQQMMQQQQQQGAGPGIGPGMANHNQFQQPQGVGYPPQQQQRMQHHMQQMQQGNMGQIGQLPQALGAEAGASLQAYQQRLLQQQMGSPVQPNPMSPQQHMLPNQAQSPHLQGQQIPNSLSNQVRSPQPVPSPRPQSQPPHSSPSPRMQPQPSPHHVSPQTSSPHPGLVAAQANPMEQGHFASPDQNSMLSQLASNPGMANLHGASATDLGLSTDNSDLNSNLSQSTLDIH
Chain of Acetylcholinesterase (P22303 whole entry): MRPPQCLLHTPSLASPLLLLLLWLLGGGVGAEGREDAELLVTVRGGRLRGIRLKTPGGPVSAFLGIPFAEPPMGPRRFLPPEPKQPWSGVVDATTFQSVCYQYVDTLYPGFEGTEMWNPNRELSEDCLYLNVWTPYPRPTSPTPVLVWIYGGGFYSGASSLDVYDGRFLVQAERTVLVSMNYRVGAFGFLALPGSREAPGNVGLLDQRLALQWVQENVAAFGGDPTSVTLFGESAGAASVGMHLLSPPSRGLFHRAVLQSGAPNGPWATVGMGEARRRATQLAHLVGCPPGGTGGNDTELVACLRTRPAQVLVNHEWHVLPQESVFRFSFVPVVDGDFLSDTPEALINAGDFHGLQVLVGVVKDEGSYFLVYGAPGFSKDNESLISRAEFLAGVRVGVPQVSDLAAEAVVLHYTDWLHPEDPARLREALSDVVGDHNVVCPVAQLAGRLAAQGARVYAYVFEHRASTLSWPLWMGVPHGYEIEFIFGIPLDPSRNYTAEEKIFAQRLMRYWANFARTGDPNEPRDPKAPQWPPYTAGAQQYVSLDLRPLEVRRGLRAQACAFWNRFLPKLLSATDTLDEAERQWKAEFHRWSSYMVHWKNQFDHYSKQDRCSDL

For the compound `COc1ccc2cc3[n+](cc2c1OC(=O)c1ccccc1)CCc1cc2c(cc1-3)OCO2`, the inhibition constant Ki at Chitinase B came to 0.15 µM.
`COc1cc(/C=C(\C#N)n2cc([N+](=O)[O-])nc2C)c2c(c1OCc1ccccc1F)CN1CCc3cc4c(cc3C1C2)OCO4` (stereo not drawn): in the experiment on Escherichia coli [1], the MIC stood at 3 µM (≈ 1.83 µg/mL).
In the case of `COc1ccc2cc3[n+](cc2c1OCCCCCn1c(C)cc2ccccc21)CCc1cc2c(cc1-3)OCO2.[Cl-]`, the half-inhibitory concentration (IC50) in experiment [2] came out at 19.9 µM; with Ca-Ski it was 6.32 µg/mL; in the experiment on HeLa [3], 7.21 µg/mL; in experiment [4], 9.09 µM.
Regarding `COc1ccc2cc3[n+](cc2c1OCc1ccc(C(F)(F)F)cc1)CCc1cc2c(cc1-3)OCO2`, the MIC in the experiment on Clostridium perfringens, in the experiment on Salmonella enteritidis, in the experiment with Staphylococcus aureus [5], in the experiment with Shigella dysenteriae, with Streptococcus pyogenes and in the experiment with Staphylococcus aureus [6] was 0.82 µM throughout. Moreover, the minimal inhibitory concentration (MIC) in the experiment with Escherichia coli [7] and with Pseudomonas aeruginosa was 0.82 µM throughout.
As for `CCCCCC/C=C\C/C=C/C(=O)NCCCCCCOc1c(OC)ccc2cc3[n+](cc12)CCc1cc2c(cc1-3)OCO2`, the IC50 was determined as 3.77 µM in the experiment on PC-12; 3.82 µM in the experiment with HeLa [8]; 4.42 µM in the experiment on HepG2; 3.91 µM with MCF7 [9]; 3.25 µM in the experiment on A549 [10].
`COc1cc2cc3[n+](cc2cc1OC)CCCc1cc2c(cc1-3)OCO2`: the IC50 in [11] was 1.8 µM.
Take `COc1cc(C=C(C#N)C#N)c2cc3[n+](cc2c1O)CCc1cc2c(cc1-3)OCO2.[Cl-]`: the minimal inhibitory concentration (MIC) against Brucella abortus and in the experiment with Vibrio cholerae was 64 µg/mL each time.
As to `COc1ccc2cc3[n+](cc2c1OS(=O)(=O)c1ccc(C(F)(F)F)cc1)CCc1cc2c(cc1-3)OCO2`, the inhibition at 5 µM in the experiment with HEK-293T is greater than 90%.
On to `COCCCCC(=O)Oc1c(OC)ccc2cc3[n+](cc12)CCc1cc2c(cc1-3)OCO2`, for which the inhibitory constant (Ki) at Chitinase B was determined as 0.15 µM.
On to `CCCCCN(CCCCC)c1cc(OC)c(OC)c2c1CC1c3cc4c(cc3CCN1C2)OCO4` (stereo not drawn), for which the half-maximal inhibitory concentration (IC50) in the experiment with A549 [12], in the experiment on Bel-7402, with HeLa [13] and in the experiment with HCT-8 was 9.74 µM each time.
Turning to `COc1ccc2cc3[n+](cc2c1OC(=O)C1(C)CCCCC1)CCc1cc2c(cc1-3)OCO2`, the inhibition at 5 µM with HEK-293T is greater than 90%.
As to `Oc1cc2c(cc1O)-c1cc3ccc(O)c(O)c3c[n+]1CC2`, the IC50 against Acetylcholinesterase came to 2.3 µM.
Consider `COc1cc(CC2C(=O)C(C)C(=O)C(C)C2=O)c2cc3[n+](cc2c1O)CCc1cc2c(cc1-3)OCO2.[Cl-]` (stereo not drawn), for which the minimal inhibitory concentration (MIC) against Brucella abortus and in the experiment with Vibrio cholerae was 64 µg/mL in each case.
In the case of `CCCCCCCCCOc1c(OC)ccc2cc3[n+](cc12)CCc1cc2c(cc1-3)OCO2`, in the experiment with MCF7 [14], the half-maximal inhibitory concentration (IC50) was found to be 4.87 µM.
